Source: paper PMC10620030, “New Organotin (IV) Compounds Derived from Dehydroacetic Acid and Thiosemicarbazides: Synthesis, Rational Design, Cytotoxic Evaluation, and Molecular Docking Simulation” (Bioinorganic Chemistry and Applications, 2023)
Entries after “also recorded” stand apart in the source; their conditions may differ.

Columns and labels:
[1] = tested on: MCF-7 (human mammary adenocarcinoma) cell line; assay: sulforhodamine B (SRB) cytotoxicity assay on MCF-7; assay type: cell-based; conditions: mean ± SE of three or four assays, incubation 72 h, 48 h exposure
Procedure: (§1) The compounds were screened in vitro against two cancer cell lines, MCF-7 and MDA-MB-231 (human mammary adenocarcinoma), and the normal cell line Cos-7 (African green monkey kidney fibroblast). The MCF-7 and MDA-MB231 cell lines were cultured in RPMI-1640 medium, and Cos-7 was cultured in DMEM (Dulbecco's Modified Eagle's Medium) and supplemented with 10% of fetal bovine serum, 2 mM L-glutamine, 10000 units/ml penicillin G sodium, 10000 μg/ml streptomycin sulfate, 25 μg amphotericin B (Gibco), and 1% of nonessential amino acids (Gibco). The cell lines were maintained at 37°C in a humidified atmosphere with 5% CO2. The viability of the cells used in the experiments exceeded 95%, as determined with trypan blue.
(§2) The human tumor cytotoxicity was assessed using the protein-binding dye sulforhodamine B (SRB) in a microculture assay to measure the cell growth as described by. The human tumors and normal cells were treated with the complexes. The cells were removed from the tissue culture flask by treatment with trypsin and diluted with fresh media from the cell suspension to 100 μl containing 5000–10000 cells per well. The cells were then pipetted into 96 microliter plates (Costar) and incubated at 37°C for 24 h in a 5% CO2 atmosphere. Subsequently, 100 μl of a solution of the corresponding organotin complex at different concentrations was added to each well. […] After the incubation period, the cells were fixed to the plastic substratum by the addition of 50 μl of cold trichloroacetic acid (50% aqueous).
(§3) The plates were incubated at 4°C for one hour, washed with tap water, and air-dried. The addition of […] stained trichloroacetic acid-fixed cells. The free SRB was removed by washing with 1% aqueous acetic acid, the plates were air-dried, and the dyed was solubilized by adding ten mM unbuffered Tris base (100 μl). The plates were placed on a shaker for 10 min, and the absorption was measured at 515 nm using an ELISA plate reader (Bio-Tex Instruments).

[2] = tested on: MDA-MB-231 (human mammary adenocarcinoma) cell line; assay: sulforhodamine B (SRB) cytotoxicity assay on MDA-MB-231; assay type: cell-based; conditions: mean ± SE of three or four assays, incubation 72 h, 48 h exposure
Procedure: as §1, §2, §3

[3] = tested on: COS-7 (African green monkey kidney fibroblast) normal cell line; assay: sulforhodamine B (SRB) cytotoxicity assay on normal cell line COS-7; assay type: cell-based; conditions: for Non-Cytotoxic concentration on normal cell line COS-7: nondetectable effect on cell proliferation; for IC50: normal cell line, SRB assay, mean ± SE of three or four assays
Procedure: as §1
The human tumor cytotoxicity was assessed using the protein-binding dye sulforhodamine B (SRB) in a microculture assay to measure the cell growth as described by. The human tumors and normal cells were treated with the complexes. The cells were removed from the tissue culture flask by treatment with trypsin and diluted with fresh media from the cell suspension to 100 μl containing 5000–10000 cells per well. The cells were then pipetted into 96 microliter plates (Costar) and incubated at 37°C for 24 h in a 5% CO2 atmosphere. Subsequently, 100 μl of a solution of the corresponding organotin complex at different concentrations was added to each well. The cultures were exposed to the compounds for 48 h. After the incubation period, the cells were fixed to the plastic substratum by the addition of 50 μl of cold trichloroacetic acid (50% aqueous).
as §3

MDA-MB-231 cell line = assay: morphological changes, Giemsa stain light microscopy, MDA-MB-231; assay type: cell-based, human; conditions: 48 h treatment
Procedure: (§4) To evaluate the morphological alterations induced by organotin(IV) complexes, MCF-7 and MDA-MB231 cell lines were cultured on a tissue culture flask with or without different treatments for 48 h. After incubation, cells were washed two times with PBS, fixed with methanol 100%, and stained with Wright-Giemsa (Sigma-Aldrich, WG32-1L). The culture flasks were examined under an Olympus IX71 Inverted Fluorescence Phase Contrast Microscope. The images were recorded with a Nikon Coolpix 4300 digital camera using the 20x objectives and analyzed by ImageJ software.

[4] = stability in DMSO-d6 by 1H NMR; assay type: physicochemical; conditions: DMSO-d6 solution, up to 72 h
Procedure: The stability of the complexes in biological media was tested to evaluate their cytotoxicity. The compounds were dissolved in a DMSO-Tris-HCl buffer (3 : 7 v/v) over a 72 h period, and the UV-Vis spectra were recorded at 0 and 72 h. ^1H NMR spectra in DMSO-d6 of complexes 1a, 1d, 2a, 2d, 3a, and 3d were also acquired at 0, 24, 56, and 72 h.

MCF-7 cell line = assay: morphological changes, Giemsa stain light microscopy, MCF-7; assay type: cell-based, human; conditions: 48 h treatment
Procedure: as §4

Question: Which IC50 [1] does the source give for `CC1=NN=C(Nc2ccccc2)[S][Sn]([c]2ccccc2)([c]2ccccc2)[O]c2cc(C)oc(=O)c21` [Compound 3c, 2,2-Diphenyl-7,10-dimethyl-4-(aminophenyl) Pyrane[3,4-h]-1,3,5,6,2-oxathiadiazastannonin-8-one] here?
Answer: 160 ± 10 nM

Question: What about the IC50 [2] of the same compound?
Answer: 490 ± 2 nM

Question: And the “Non-Cytotoxic concentration on normal cell line COS-7” value (“Non-Cytotoxic concentration” below) [3]?
Answer: 0.01 µM

Question: And the IC50 [3]?
Answer: 250 ± 6 nM

Question: Which IC50 [1] does the source give for `CC1=NN=C(N)[S][Sn]([c]2ccccc2)([c]2ccccc2)[O]c2cc(C)oc(=O)c21` [Compound 1c, 4-Amino-2,2-diphenyl-7,10-dimethylpyrane[3,4-h]-1,3,5,6,2-oxathiadiazastannonin-8-one] here?
Answer: 611 ± 20 nM

Question: And the IC50 [2]?
Answer: 170 ± 10 nM

Question: And the “morphological alterations MDA-MB-231” value (MDA-MB-231 cell line)?
Answer: Cell density decreased

Question: What about the “Non-Cytotoxic concentration” value [3] of the same compound?
Answer: 0.02 µM

Question: And the IC50 [3]?
Answer: 680 ± 50 nM

Question: For `CCC[CH2][Sn]1([CH2]CCC)[O]c2cc(C)oc(=O)c2C(C)=NN=C(CN)[S]1` [Compound 2a, 2,2-Dibutyl-7,10-dimethyl-4-(aminomethyl) Pyrane[3,4-h]-1,3,5,6,2-oxathiadiazastannonin-8-one], which “stability by 1H NMR” value [4] is on record?
Answer: good stability

Question: And the IC50 [1]?
Answer: 210 ± 40 nM

Question: And the IC50 [2]?
Answer: 310 ± 20 nM

Question: What about the “Non-Cytotoxic concentration” value [3] of the same compound?
Answer: 0.01 µM

Question: What about the IC50 [3] of the same compound?
Answer: 620 ± 60 nM

Question: What does the source list for `CC1=NN=C(N)[S][Sn]([CH]2CCCCC2)([CH]2CCCCC2)[O]c2cc(C)oc(=O)c21` [Compound 1d, 4-Amino-2,2-dicyclohexyl-7,10-dimethylpyrane[3,4-h]-1,3,5,6,2-oxathiadiazastannonin-8-one]?
Answer: stability by 1H NMR [4]: good stability; IC50 [1]: 203 ± 8 nM; IC50 [2]: 119 ± 3 nM; Non-Cytotoxic concentration on normal cell line COS-7 [3]: 0.01 µM; IC50 [3]: 180 ± 6 nM

Question: With `CC1=NN=C(CN)[S][Sn]([CH]2CCCCC2)([CH]2CCCCC2)[O]c2cc(C)oc(=O)c21` [Compound 2d, 2,2-Dicyclohexyl-7,10-dimethyl-4-(aminomethyl) Pyrane[3,4-h]-1,3,5,6,2-oxathiadiazastannonin-8-one] as the compound, how does the “stability by 1H NMR” value [4] read?
Answer: good stability

Question: What about the IC50 [1] of the same compound?
Answer: 200 ± 2 nM

Question: And the IC50 [2]?
Answer: 87 ± 200 nM

Question: What about the “Non-Cytotoxic concentration” value [3] of the same compound?
Answer: 0.01 µM

Question: What about the IC50 [3] of the same compound?
Answer: 280 ± 10 nM

Question: Which results are given for `CC1=NN=C(Nc2ccccc2)[S][Sn]([CH]2CCCCC2)([CH]2CCCCC2)[O]c2cc(C)oc(=O)c21` [Compound 3d, 2,2-Dicyclohexyl-7,10-dimethyl-4-(aminophenyl) Pyrane[3,4-h]-1,3,5,6,2-oxathiadiazastannonin-8-one]?
Answer: IC50 [1]: 160 ± 6 nM; IC50 [2]: 70 ± 5 nM; morphological alterations MDA-MB-231 (MDA-MB-231 cell line): chromatin condensation; Non-Cytotoxic concentration on normal cell line COS-7 [3]: 0.01 µM; IC50 [3]: 160 ± 20 nM

Question: With `CC1=NN=C(Nc2ccccc2)[S][Sn]([CH2][Si](C)(C)C)([CH2][Si](C)(C)C)[O]c2cc(C)oc(=O)c21` [Compound 3e, 2,2-Bis(trimethylsilyl)methyl-7,10-dimethyl-4-(aminophenyl) Pyrane[3,4-h]-1,3,5,6,2-oxathiadiazastannonin-8-one] as the compound, how does the IC50 [1] read?
Answer: 40 ± 2 nM

Question: What about the IC50 [2] of the same compound?
Answer: 140 ± 3 nM

Question: And the “morphological alterations MDA-MB-231” value (MDA-MB-231 cell line)?
Answer: cytoplasm vacuolization

Question: What about the “morphological alterations MCF-7” value (MCF-7 cell line) of the same compound?
Answer: Cell density decreased; also recorded: presence of nonadherent cells; also recorded: chromatin condensation and pyknotic nuclei

Question: And the “Non-Cytotoxic concentration” value [3]?
Answer: 0.01 µM

Question: And the IC50 [3]?
Answer: 250 ± 10 nM

Question: For `N.N.[Cl][Pt][Cl]` [Cisplatin, reference compound], which IC50 [1] is on record?
Answer: 5300 ± 500 nM

Question: And the IC50 [2]?
Answer: 27700 nM

Question: And the IC50 [3]?
Answer: 7170 ± 600 nM

Question: For `CCC[CH2][Sn]1([CH2]CCC)[O]c2cc(C)oc(=O)c2C(C)=NN=C(N)[S]1` [Compound 1a, 4-Amino-2,2-dibutyl-7,10-dimethylpyrane[3,4-h]-1,3,5,6,2-oxathiadiazastannonin-8-one], which “stability by 1H NMR” value [4] is on record?
Answer: good stability

Question: What about the IC50 [1] of the same compound?
Answer: 380 ± 30 nM

Question: What about the IC50 [2] of the same compound?
Answer: 120 ± 10 nM

Question: What about the “morphological alterations MDA-MB-231” value (MDA-MB-231 cell line) of the same compound?
Answer: Cell density decreased

Question: What about the “Non-Cytotoxic concentration” value [3] of the same compound?
Answer: 0.02 µM

Question: And the IC50 [3]?
Answer: 490 ± 30 nM

Question: For `CC1=NN=C(CN)[S][Sn]([CH2][Si](C)(C)C)([CH2][Si](C)(C)C)[O]c2cc(C)oc(=O)c21` [Compound 2e, 2,2-Bis(trimethylsilyl)methyl-7,10-dimethyl-4-(aminomethyl) Pyrane[3,4-h]-1,3,5,6,2-oxathiadiazastannonin-8-one], which IC50 [1] is on record?
Answer: 150 ± 20 nM

Question: And the IC50 [2]?
Answer: 120 ± 8 nM

Question: What about the “morphological alterations MCF-7” value (MCF-7 cell line) of the same compound?
Answer: cytoplasm vacuolization

Question: What about the “Non-Cytotoxic concentration” value [3] of the same compound?
Answer: 0.01 µM

Question: What about the IC50 [3] of the same compound?
Answer: 290 ± 30 nM

Question: Which results are given for `CC1=NN=C(N)[S][Sn]([CH2][Si](C)(C)C)([CH2][Si](C)(C)C)[O]c2cc(C)oc(=O)c21` [Compound 1e, 4-Amino-2,2-bis(trimethylsilyl)methyl-7,10-dimethylpyrane[3,4-h]-1,3,5,6,2-oxathiadiazastannonin-8-one]?
Answer: IC50 [1]: 180 ± 5 nM; IC50 [2]: 42 ± 8 nM; Non-Cytotoxic concentration on normal cell line COS-7 [3]: 0.01 µM; IC50 [3]: 140 ± 10 nM

Question: Which results are given for `CCCCCCC[CH2][Sn]1([CH2]CCCCCCC)[O]c2cc(C)oc(=O)c2C(C)=NN=C(NC)[S]1` [Compound 2b, 2,2-Dioctyl-7,10-dimethyl-4-(aminomethyl) Pyrane[3,4-h]-1,3,5,6,2-oxathiadiazastannonin-8-one]?
Answer: IC50 [1]: 1390 ± 30 nM; IC50 [2]: 3280 ± 80 nM; morphological alterations MCF-7 (MCF-7 cell line): Cell density decreased; Non-Cytotoxic concentration on normal cell line COS-7 [3]: 0.2 µM; IC50 [3]: 11600 ± 800 nM

Question: For `CCCCCCC[CH2][Sn]1([CH2]CCCCCCC)[O]c2cc(C)oc(=O)c2C(C)=NN=C(N)[S]1` [Compound 1b, 4-Amino-2,2-dioctyl-7,10-dimethylpyrane-[3,4-h]-1,3,5,6,2-oxathiadiazastannonin-8-one], which IC50 [1] is on record?
Answer: 8650 ± 700 nM

Question: What about the IC50 [2] of the same compound?
Answer: 11000 ± 1500 nM

Question: And the “Non-Cytotoxic concentration” value [3]?
Answer: 0.2 µM

Question: And the IC50 [3]?
Answer: 12200 ± 300 nM

Question: What does the source list for `CCCCCCC[CH2][Sn]1([CH2]CCCCCCC)[O]c2cc(C)oc(=O)c2C(C)=NN=C(Nc2ccccc2)[S]1` [Compound 3b, 2,2-Dioctyl-7,10-dimethyl-4-(aminophenyl) Pyrane[3,4-h]-1,3,5,6,2-oxathiadiazastannonin-8-one]?
Answer: IC50 [1]: 730 ± 100 nM; IC50 [2]: 540 ± 80 nM; Non-Cytotoxic concentration on normal cell line COS-7 [3]: 0.01 µM; IC50 [3]: 1600 ± 200 nM

Question: Which “stability by 1H NMR” value [4] does the source give for `CCC[CH2][Sn]1([CH2]CCC)[O]c2cc(C)oc(=O)c2C(C)=NN=C(Nc2ccccc2)[S]1` [Compound 3a, 2,2-Dibutyl-7,10-dimethyl-4-(aminophenyl) Pyrane[3,4-h]-1,3,5,6,2-oxathiadiazastannonin-8-one] here?
Answer: good stability

Question: And the IC50 [1]?
Answer: 210 ± 9 nM

Question: What about the IC50 [2] of the same compound?
Answer: 100 ± 10 nM

Question: And the “Non-Cytotoxic concentration” value [3]?
Answer: 0.02 µM

Question: And the IC50 [3]?
Answer: 340 ± 10 nM

Question: With `CC1=NN=C(CN)[S][Sn]([c]2ccccc2)([c]2ccccc2)[O]c2cc(C)oc(=O)c21` [Compound 2c, 2,2-Diphenyl-7,10-dimethyl-4-(aminomethyl) Pyrane[3,4-h]-1,3,5,6,2-oxathiadiazastannonin-8-one] as the compound, how does the IC50 [1] read?
Answer: 1080 ± 10 nM

Question: And the IC50 [2]?
Answer: 1020 ± 30 nM

Question: What about the “Non-Cytotoxic concentration” value [3] of the same compound?
Answer: 0.02 µM

Question: And the IC50 [3]?
Answer: 1150 ± 100 nM
